Columns and labels:
NCI-H1299 cells = test: CCK-8 assay for cell proliferation and cytotoxicity, NCI-H1299; type: cell-based; settings: Homo sapiens, CCK-8, 48 h
Experimental: (§1) Three types of lung cells were seeded into 96-well plate at a density of 5 × 10^3 cells per well at logarithmic growth phase and cultured in 37 °C. […] After that, cell viability was determined according to the instruction of the CCK-8 assay. Next, 10 μL of CCK-8 solution was added to each well of the plate and incubate the plate for 1–4 h in the incubator. The absorbance was measured at 450 nm using a microplate reader (Bio-Tek). The percentage of viable cells was measured using the following formula where three independent experiments were performed: [(A450 sample − A450blank)/(A450 control − A450blank)] × 100%.

A549 cells = test: CCK-8 assay for cell proliferation and cytotoxicity, A549; type: cell-based; settings: Homo sapiens, CCK-8, 48 h
Experimental: A549 cells were cultured in a humidified incubator at 37 °C with 5% CO2 in Ham’s F-12 K (PM150910, Procell) supplemented with 10% FBS and 1% Penicillin Streptomycin.
as §1

NCI-H1437 cells = test: CCK-8 assay for cell proliferation and cytotoxicity, NCI-H1437; type: cell-based; settings: Homo sapiens, CCK-8, 48 h, read-out: IC50 1437
Experimental: as §1

L02 cells = test: Cytotoxicity / survival rate in normal hepatocytes L02; type: cell-based; settings: for Survival rate %, 48 h: L02 cells
H1299 cells [1] = test: Flow cytometry detection of apoptosis (Annexin V-EGFP/PI); type: cell-based, human; settings: 48 h
Experimental: H1299 cells were treated with different concentrations of 7a and 7j for 48 h. The cells were stained with Annexin-V and PI, and the proportion of apoptotic cells was detected using flow cytometry.
H1299 cells were seeded in a 6-well plate at a density of 1 × 10^5 cells/well and incubated for 24 h. On the following day, the medium was replaced with fresh medium containing 7a or 7j (2, 4 and 8 μmol/L) and cells were incubated for an additional 48 h. Cell apoptosis was detected using Annexin V-EGFP/PI apoptosis detection Kit by flow cytometry. Subsequently, 5 µl of […] Annexin V and 10 µl of PI was added to the cell suspension, gently vortexed, and incubated at room temperature in the dark for 20 min, then single-cell suspension was prepared followed by flow cytometry (BD Accuri™ C6 Plus).

H1299 cells [2] = test: DAPI staining for cell apoptosis; type: cell-based, human; settings: H1299, 2, 4 and 8 μmol/L, 48 h
Experimental: In order to further verify the apoptotic activity induced by 7a and 7j in lung cancer cells, H1299 cells were treated with different concentrations of compounds 7a and 7j for 48 h, followed by DAPI staining. […] As the drug concentration increased, nuclear staining intensified, and even nuclear condensation and fragmentation phenomena were observed.
H1299 (1.5 × 10^4 ~ 2 × 10^4 /well) cells were seeded in 24-well plates for 24 h, and then treated with 7a or 7j at the concentrations of 2,4 and 8 μmol/L for 48 h., the cells were fixed for 30 min at room temperature in 4% paraformaldehyde and washed 3 times in PBS. Finally, every well was stained with DAPI (10 µg/mL, C0065, Solarbio) at room temperature for 30 min, and washed at least three times in PBS. The fluorescence microscope was used to observe the morphological changes of cell nuclei.

H1299 cells [3] = test: Wound healing assay; type: cell-based, human; settings: 24 h
Experimental: H1299 cells were seeded in a 6-well plate, When the cell confluency reached 95%, a wound line was scratched using a 200 µl pipette tip, and then washed three times, fresh medium containing 7a or 7j (2, 4 and 8 μmol/L) was added, and the plate was incubated at 37 °C with 5% CO2. All the images were captured at 0 h and 24 h under an inverted microscope, and the quantification of scratches was analysed using Image J.

H1299 cells [4] = test: Transwell migration assay; type: cell-based, human; settings: H1299, 2, 4 and 8 μmol/L, 24 h, vs normal control, p < 0.01
Experimental: Transwell chamber migration assay is another important method to assess cell migration ability. Tumor cells are seeded in the chamber, and the number of tumor cells that pass through the membrane is counted to evaluate the migration ability of tumor cells.
Transwell assay was used to determine the migration ability of H1299 cells. Cells were starved in serum-free RPMI 1640 medium for 24 h, then detached and resuspended in serum-free RPMI 1640 medium. 5 × 10^5 cells/mL were inoculated into the upper chamber of a 24-well Transwell plate (Corning Inc., United States), with a volume of 100 µl per well. Then, 100 µL serum-free medium containing 7a or 7j (2, 4 and 8 μmol/L) was added to the upper chamber and the lower chamber was filled with 700 µL medium containing 20% FBS. After incubation for 24 h, H1299 cells on the upper membrane of the transwell were wiped off. The migrated cells were treated with 4% paraformaldehyde for 20 min, stained with 0.1% crystal violet for 20 min and washed three times with PBS. The number of H1299 cells that migrated to the underside of the membrane was counted under the inverted fluorescence microscope. Three randomly selected areas from each transwell were photographed and calculated using Image J.

H1299 cells [5] = test: Colony formation assay; type: cell-based, human; settings: 7 days
From the text: The colony formation assay is an important method for evaluating the ability of adherent cells to proliferate and form colonies on a plate, and it is widely used to assess cell proliferation. We also employed the colony formation assay to further confirm that compounds 7a and 7j can inhibit the proliferation of lung cancer cells, as shown in Fig. 5. After treating lung cancer cells with low, medium, and high concentrations (1, 2, 4 μmol/L) of compounds for 7 days, the number of cell colonies was counted to analyze the proliferation inhibition rate.
H1299 cells were seeded in six-well plates at a density of 500 cells per well and treated with 7a or 7j (1, 2 and 4 μmol/L) for 7 days. Then, cells were per-fixed with 4% paraformaldehyde for 30 min, stained with 0.1% Crystal violet for 15 min, and then washed with pure water. Taking a picture after the plates were air-dry. The clone formations number was counted with Image J.

[6] = test system: Bcl-2, caspase9, Cleaved-Caspase3, Cleaved-PARP, MMP9 in H1299 cells; test: Western blot of apoptosis- and migration-related proteins; type: cell-based, human; settings: H1299, 4, 8 or 16 μM, 48 h
From the text: We conducted an in-depth investigation into the mechanism of apoptosis induced by compounds 7a and 7j. The Bcl-2 protein family is located upstream of the apoptosis signaling pathway. Bcl-2 proteins play an anti-apoptotic role by inhibiting the release of cytochrome C (cyt-c) from mitochondria. Previous literature reports that many anticancer drugs induce apoptosis by downregulating Bcl-2 expression. During apoptosis, the expression of Bcl-2 is inhibited, cyt-c is released, and it binds with the apoptotic protease activation factor to form the apoptosome. This triggers a cascade reaction of Caspase family proteins, with apoptosome promoting the activation of Caspase9. Activated Caspase9 then activates Caspase3, forming the Caspase3 cleavage body, which further activates downstream PARP protein, ultimately promoting cell apoptosis. […] After treating H1299 cells with different concentrations of compounds for 48 h, cell proteins were extracted, and western blot was used to detect the expression changes of apoptosis-related proteins.
Firstly, H1299 cells were treated with different concentrations concentrations of 7a and 7j at 4, 8 and 16 μmol/L for 48 h, cells were harvested using RIPA lysate (R0010, Solarbio) and centrifuged at 12,000 rpm for 15 min at 4 °C, and then the concentration of total protein was measured and taken from the supernatant. Protein was separated by 12% SDS–polyacrylamide gel electrophoresis and transferred to nitrocellulose filter membrane. after blocking in 5% milk for 2 h, the membranes were incubated with specific primary antibody at 4 °C overnight. Next day, NC membranes were incubated for 1 h at room temperature with appropriate secondary antibodies, and then Protein bands was visualizing by chemiluminescence detection (ECL kit, Genview).

COc1cc2ncnc(Nc3cccc(-c4cn(Cc5cccc(Cl)c5)nn4)c3)c2cc1OCCCN1CCOCC1 [Compound 7j]
IC50 (NCI-H1299 cells): 3.84 ± 0.22 µM | IC50 (A549 cells): 3.86 ± 0.38 µM | IC50 (NCI-H1437 cells): 1.69 ± 0.25 µM | IC50 (L02 cells; Homo sapiens, normal hepatocytes L02): 17.7 ± 0.52 µM | Survival rate %, 48 h (L02 cells; 2 μM): 94.49 ± 4.11% | Survival rate %, 48 h (L02 cells; 4 μM): 89.12 ± 5.50% | Survival rate %, 48 h (L02 cells; 8 μM): 75.59 ± 2.65% | Survival rate %, 48 h (L02 cells; 16 μM): 59.14 ± 1.54% | Survival rate %, 48 h (L02 cells; 32 μM): 24.48 ± 3.68% | total apoptotic cell proportion (H1299 cells [1]; H1299, 2 μmol/L): 14.97 ± 1.54% | total apoptotic cell proportion (H1299 cells [1]; H1299, 4 μmol/L): 27.07 ± 2.77% | total apoptotic cell proportion (H1299 cells [1]; H1299, 8 μmol/L): 65.77 ± 2.93% | apoptotic morphology by DAPI staining (H1299 cells [2]): exhibited typical apoptotic features | migration closure rate (H1299 cells [3]; H1299, 2 μmol/L): 72.57 ± 3.43% | migration closure rate (H1299 cells [3]; H1299, 4 μmol/L): 60.91 ± 8.48% | migration closure rate (H1299 cells [3]; H1299, 8 μmol/L): 48.88 ± 3.23% | number of cells passing through the membrane to the lower surface of the chamber (H1299 cells [4]): significantly decreased | formation of H1299 cell colonies (H1299 cells [5]; 1 μmol/L): markedly inhibit | colony formation (H1299 cells [5]; H1299, 4 μmol/L): almost completely suppressed | Bcl-2 protein expression level [6]: decrease | Cleaved-Caspase3 protein expression level [6]: increased | Cleaved-PARP protein expression level [6]: increased | MMP9 protein expression [6]: downregulated | caspase9 protein expression level [6]: decrease

Source: PMC11035632, “Discovery of gefitinib-1,2,3-triazole derivatives against lung cancer via inducing apoptosis and inhibiting the colony formation” (Scientific Reports, 2024)
